Laboratory results from patent US12595248B2, “PRMT5 inhibitors” (Merck Sharp & Dohme LLC, priority 2019, dated 2026).
Like-named read-outs stand apart in the source and are kept apart here.

Legend:
[1] = molecular target: T1, PRMT5-MEP50 enzyme complex (Homo sapiens, UniProt O14744); test: PRMT5-MEP50 Enzyme Methylation Assay (Version A); type: biochemical
T1 construct: Full-length (FL)-PRMT5-MEP50 enzyme complex (recombinant proteins from baculovirus-transfected Sf21 cells: FL-PRMT5; MW=73837 kDa and FL-MEP50; MW=38614); made in house; host or cells: baculovirus-transfected Sf21 cells
T1 sequence (O14744 whole entry): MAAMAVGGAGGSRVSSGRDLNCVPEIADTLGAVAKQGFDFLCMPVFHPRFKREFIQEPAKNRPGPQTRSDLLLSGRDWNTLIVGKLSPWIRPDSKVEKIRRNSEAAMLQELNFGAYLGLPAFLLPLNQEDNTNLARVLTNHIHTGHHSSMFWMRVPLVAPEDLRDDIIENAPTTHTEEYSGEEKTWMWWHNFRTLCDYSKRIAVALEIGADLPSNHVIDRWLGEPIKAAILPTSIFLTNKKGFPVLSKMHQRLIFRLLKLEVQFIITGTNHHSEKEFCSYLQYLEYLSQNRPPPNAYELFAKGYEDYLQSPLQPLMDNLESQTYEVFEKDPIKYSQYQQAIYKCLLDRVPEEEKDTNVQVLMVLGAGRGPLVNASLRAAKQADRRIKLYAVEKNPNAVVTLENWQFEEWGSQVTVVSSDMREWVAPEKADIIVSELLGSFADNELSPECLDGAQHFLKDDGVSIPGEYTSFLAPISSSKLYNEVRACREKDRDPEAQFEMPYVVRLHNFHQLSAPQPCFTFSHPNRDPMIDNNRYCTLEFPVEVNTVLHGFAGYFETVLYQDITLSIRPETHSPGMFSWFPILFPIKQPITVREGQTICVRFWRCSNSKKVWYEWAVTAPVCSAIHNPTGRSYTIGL
T1 sequence (Q9BQA1 whole entry partner): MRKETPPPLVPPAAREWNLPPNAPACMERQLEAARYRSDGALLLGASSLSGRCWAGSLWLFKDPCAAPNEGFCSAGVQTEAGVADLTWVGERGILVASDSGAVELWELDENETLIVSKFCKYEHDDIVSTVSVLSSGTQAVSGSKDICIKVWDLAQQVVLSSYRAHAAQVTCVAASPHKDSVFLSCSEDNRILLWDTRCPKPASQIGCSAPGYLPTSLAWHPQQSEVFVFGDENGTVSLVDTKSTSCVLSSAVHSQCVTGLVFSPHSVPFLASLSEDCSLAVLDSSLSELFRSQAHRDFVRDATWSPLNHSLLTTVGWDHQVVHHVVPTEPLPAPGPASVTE
Description: PRMT5-MEP50 Enzyme Methylation Assay (Version A)
PRMT5-MEP50 biochemical assay is a direct measurement of the methylation activity of the enzyme complex on a short peptide substrate derived from the N-terminus of H4 histone. Methylation experiment was performed with recombinant PRMT5-MEP50 protein complex. The assessment of inhibitory effect of small molecules was measured by the effectiveness of the compounds to inhibit this reaction (EC50).
In this assay, the potency (EC50) of each compound was determined from a twenty-point (1:2 serial dilution; top compound concentration of 100000 nM) titration curve using the following outlined procedure. To each well of a white ProxiPlus 384 well-plate, 100 nL of compound (1% DMSO in final assay volume of 10 μL) was dispensed, followed by the addition of 8 μL of 1× assay buffer (50 mM Bicine pH 8.0, 1 mM DTT, 0.004% Tween20, 0.01% BSA) containing 1.25 nM of Full-length (FL)-PRMT5-MEP50 enzyme complex (recombinant proteins from baculovirus-transfected Sf21 cells: FL-PRMT5; MW=[…] and FL-MEP50; MW=38614) and 1 μL of 150 μM S-(5′-Adenosyl)-L-Methionine Chloride (SAM). A plate was sealed and placed in a 37° C. humidified chamber for a 60 minutes pre-incubation with compound. Subsequently, each reaction was initiated by the addition of 1 μL 1× assay buffer containing 750 nM biotinylated H4R3 (MeI) peptide. The final reaction in each well of 10 μL consists of 1.0 nM PRMT5-MEP50, 75 nM biotinylated-peptide, and 15 μM SAM. Methylation reactions were allowed to proceed for 150 minutes in a sealed plate at 37° C. Reactions were immediately quenched by the addition of 1 μL of 5% formic acid. A plate was then frozen and shipped to SAMDI™ Tech Inc. to determine the percent conversion from H4R3 (MeI) to H4R3 (Me2). Dose-response curves were generated by plotting percent effect (% product conversion; Y-axis) vs. Log 10 compound concentrations (X-axis). EC50 values were determined by non-linear regression according to models for either sigmoidal (4 parameters) or biphasic (7 parameters) dose-response curves.

PRMT5 = molecular target: T2, PRMT5 (Homo sapiens, UniProt O14744); test: PRMT5 Cell Target Engagement (TE) Assay; type: cell-based; conditions: MCF-7 cells, treated for 3 days, symmetric dimethylation of arginine (SDMA) by high content imaging
T2 construct: seeded with 4000 MCF-7 cells in 30 μl media; endogenous in cells; host or cells: MCF-7 cells
T2 sequence (O14744 whole entry): as the sequence (O14744 whole entry) above
T2 sequence (Q9BQA1 whole entry partner): as the sequence (Q9BQA1 whole entry partner) above
Outline: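 MCF-7 cells treated 3 days at 37 °C with a ten-point 1:3 titration from 10000 nM. Fixed cells immunostained with anti-SDMA and Alexa488 secondary; nuclear fluorescence quantified by high-content imaging versus DMSO wells, with IC50 from a 4-parameter fit.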

[2] = only one EC50 shown: 4 parameters single site sigmoidal model, 60 min pre-incubation with SAM, read-out: Enzyme Methylation Assay Version A (EC50)
[3] = first of two EC50s: 7 parameters biphasic model, read-out: Enzyme Methylation Assay Version A (EC50_1)
[4] = second of two EC50s: 7 parameters biphasic model, read-out: Enzyme Methylation Assay Version A (EC50_2)

EC50 [1, 2] [nM] | EC50 (PRMT5) [nM] | EC50 [1, 3] [nM] | EC50 [1, 4] [nM] | SMILES
2.1 | 13 | – | – | CC(C#N)c1cnc2nc(C(=O)N3CC[C@H](N4CCc5ccccc5C4)[C@@H](O)C3)cn2c1 (stereo partly drawn) [Example 77, 2-{2-[(3S,4S)-4-(3,4-dihydroisoquinolin-2(1H)-yl)-3-hydroxypiperidine-1-carbonyl]imidazo[1,2-a]pyrimidin-6-yl}propanenitrile]
0.7 | 21 | – | – | O=C(c1cn2cc(Br)c(C3CC3)nc2n1)N1CC[C@H](N2CCc3ccccc3C2)[C@@H](O)C1 [Example 78, (6-bromo-7-cyclopropylimidazo[1,2-a]pyrimidin-2-yl)[(3S,4S)-4-(3,4-dihydroisoquinolin-2(1H)-yl)-3-hydroxypiperidin-1-yl]methanone]
0.7 | 4.9 | – | – | CC(C)c1nc2nc(C(=O)N3CC[C@H](N4CCc5ccccc5C4)[C@@H](O)C3)cn2cc1Br [Example 79, [6-bromo-7-(propan-2-yl)imidazo[1,2-a]pyrimidin-2-yl][(3S,4S)-4-(3,4-dihydroisoquinolin-2(1H)-yl)-3-hydroxypiperidin-1-yl]methanone]
– | 16 | 0.9 | 2880 | CC1(C)Oc2ccc(C(=O)N3CC[C@H](N4CCc5ccccc5C4)[C@@H](O)C3)cc2NC1=O [Example 101, 6-((3S,4S)-4-(3,4-dihydroisoquinolin-2(1H)-yl)-3-hydroxypiperidine-1-carbonyl)-2,2-dimethyl-2H-benzo[b][1,4]oxazin-3(4H)-one]
– | 10 | 1.5 | 905 | O=C(c1ccc2c(c1)NCCN(CC(F)(F)F)C2=O)N1CC[C@H](N2CCc3ccccc3C2)[C@@H](O)C1 [Example 102, 8-((3S,4S)-4-(3,4-dihydroisoquinolin-2(1H)-yl)-3-hydroxypiperidine-1-carbonyl)-4-(2,2,2-trifluoroethyl)-1,2,3,4-tetrahydro-5H-benzo[e][1,4]diazepin-5-one]
2.1 | 7.9 | – | – | CCOc1cnc(NC2CCN(C(C)=O)CC2)cc1C(=O)N1CC[C@H](N2CCc3ccccc3C2)[C@@H](O)C1 [Example 107, 1-(4-((4-((3S,4S)-4-(3,4-dihydroisoquinolin-2(1H)-yl)-3-hydroxypiperidine-1-carbonyl)-5-ethoxypyridin-2-yl)amino)piperidin-1-yl)ethan-1-one]
1.3 | 3.8 | – | – | O=C(c1cc(NC2CCN(C(=O)C3CC3)CC2)ncc1F)N1CC[C@H](N2CCc3ccccc3C2)[C@@H](O)C1 [Example 108, (2-((1-(cyclopropanecarbonyl)piperidin-4-yl)amino)-5-fluoropyridin-4-yl)((3S,4S)-4-(3,4-dihydroisoquinolin-2(1H)-yl)-3-hydroxypiperidin-1-yl)methanone]
1.2 | 3.5 | – | – | COC(=O)N1CCC(Nc2cc(C(=O)N3CC[C@H](N4CCc5ccccc5C4)[C@@H](O)C3)c(F)cn2)CC1 [Example 109, methyl 4-((4-((3S,4S)-4-(3,4-dihydroisoquinolin-2(1H)-yl)-3-hydroxypiperidine-1-carbonyl)-5-fluoropyridin-2-yl)amino)piperidine-1-carboxylate]
1.4 | 8.1 | – | – | CN(C)C(=O)N1CCC(Nc2cc(C(=O)N3CC[C@H](N4CCc5ccccc5C4)[C@@H](O)C3)c(F)cn2)CC1 [Example 110, 4-((4-((3S,4S)-4-(3,4-dihydroisoquinolin-2(1H)-yl)-3-hydroxypiperidine-1-carbonyl)-5-fluoropyridin-2-yl)amino)-N,N-dimethylpiperidine-1-carboxamide]
1.4 | 6.1 | – | – | CCC(=O)N1CCC(Nc2cc(C(=O)N3CC[C@H](N4CCc5ccccc5C4)[C@@H](O)C3)c(F)cn2)CC1 [Example 111, 1-(4-((4-((3S,4S)-4-(3,4-dihydroisoquinolin-2(1H)-yl)-3-hydroxypiperidine-1-carbonyl)-5-fluoropyridin-2-yl)amino)piperidin-1-yl)propan-1-one]
– | 50 | 4.5 | 4420 | CN1CCC(Nc2cc(C(=O)N3CC[C@H](N4CCc5ccccc5C4)[C@@H](O)C3)c(F)cn2)CC1=O (stereo partly drawn) [Example 112, 4-((4-((3S,4S)-4-(3,4-dihydroisoquinolin-2(1H)-yl)-3-hydroxypiperidine-1-carbonyl)-5-fluoropyridin-2-yl)amino)-1-methylpiperidin-2-one]
4.1 | 17 | – | – | CC(=O)N1CC[C@@H](CNc2cc(C(=O)N3CC[C@H](N4CCc5ccccc5C4)[C@@H](O)C3)c(F)cn2)C1 [Example 123, 1-((S)-3-(((4-((3S,4S)-4-(3,4-dihydroisoquinolin-2(1H)-yl)-3-hydroxypiperidine-1-carbonyl)-5-fluoropyridin-2-yl)amino)methyl)pyrrolidin-1-yl)ethan-1-one]
– | 33 | 5.2 | 4270 | CC(=O)N1C[C@H]2CC[C@@H](C1)C2Nc1cc(C(=O)N2CC[C@H](N3CCc4ccccc4C3)[C@@H](O)C2)c(F)cn1 (stereo partly drawn) [Example 124, 1-((1R,5S)-8-((4-((3S,4S)-4-(3,4-dihydroisoquinolin-2(1H)-yl)-3-hydroxypiperidine-1-carbonyl)-5-fluoropyridin-2-yl)amino)-3-azabicyclo[3.2.1]octan-3-yl)ethan-1-one]
– | 1750 | ~58 | 13700 | N#CC1(c2ccc3nc(C(=O)N4CC[C@H](N5CCc6ccccc6C5)[C@@H](O)C4)cn3c2)CC1 [Example 125, 1-(2-((3S,4S)-4-(3,4-dihydroisoquinolin-2(1H)-yl)-3-hydroxypiperidine-1-carbonyl)imidazo[1,2-a]pyridin-6-yl)cyclopropane-1-carbonitrile]
– | 69 | 1.1 | 1330 | O=C(c1ccc2c(O)c(CC(F)(F)F)cnc2c1)N1CC[C@H](N2CCc3ccccc3C2)[C@@H](O)C1 [Example 126, ((3S,4S)-4-(3,4-dihydroisoquinolin-2(1H)-yl)-3-hydroxypiperidin-1-yl)(4-hydroxy-3-(2,2,2-trifluoroethyl)quinolin-7-yl)methanone]

SMILES | EC50 [1, 2] [nM] | EC50 (PRMT5) [nM] | EC50 [1, 3] [nM] | EC50 [1, 4] [nM]
CC(C)(C)OC(=O)N1C2CCC1CC(Nc1cc(C(=O)N3CC[C@H](N4CCc5ccccc5C4)[C@@H](O)C3)c(F)cn1)C2 (stereo partly drawn) [Example 104, tert-butyl-3-((4-((3S,4S)-4-(3,4-dihydroisoquinolin-2(1H)-yl)-3-hydroxypiperidine-1-carbonyl)-5-fluoropyridin-2-yl)amino)-8-azabicyclo[3.2.1]octane-8-carboxylate] | 1.7 | 42 | – | –
O=C(c1cc(NC2CC3CCC(C2)N3)ncc1F)N1CC[C@H](N2CCc3ccccc3C2)[C@@H](O)C1 (stereo partly drawn) [Example 121, (2-((8-azabicyclo[3.2.1]octan-3-yl)amino)-5-fluoropyridin-4-yl)((3S,4S)-4-(3,4-dihydroisoquinolin-2(1H)-yl)-3-hydroxypiperidin-1-yl)methanone] | – | 1590 | 14 | 2880
CC(=O)N1C2CCC1CC(Nc1cc(C(=O)N3CC[C@H](N4CCc5ccccc5C4)[C@@H](O)C3)c(F)cn1)C2 (stereo partly drawn) [Example 122, 1-(3-((4-((3S,4S)-4-(3,4-dihydroisoquinolin-2(1H)-yl)-3-hydroxypiperidine-1-carbonyl)-5-fluoropyridin-2-yl)amino)-8-azabicyclo[3.2.1]octan-8-yl)ethan-1-one] | 3.4 | 5.9 | – | –
